Patent US20260035365A1, “1H-PYRROLO[3,2-B]PYRIDINE DERIVATIVES AS IRREVERSIBLE INHIBITORS OF MUTANT EGFR FOR THE TREATMENT OF CANCER” (Bayer Aktiengesellschaft, priority 2022, published 2026)

What was measured:
[1] = target: mutEGFR (D770_N771insSVD) (Homo sapiens, UniProt P00533, INS767SVD); test: Exon20-mutant-EGFR (D770_N771insSVD) TR-FRET kinase assay; format: biochemical; conditions: 2 mM ATP, 15 min preincubation
Source text: Inhibitory activity of compounds of the present invention against an Epidermal Growth Factor Receptor (EGFR) with an insertion of the amino acids sequence SVD between D770 and N771 (SEQ ID No. 5) was quantified employing the TR-FRET based kinase activity assay as described in the following paragraphs.
A recombinant fusion protein of N-terminal Glutathion-S-Transferase (GST) and a fragment of human EGFR variant (amino acids R669 to A1210 with insertion of the amino acids sequence SVD between D770 and N771 (SEQ ID No. 5) (“EGFR ins SVD”), expressed in Sf9 insect cells and purified via affinity chromatography using Glutathion Sepharose as described above, was used as a kinase. As substrate for the kinase reaction the biotinylated peptide biotin-Ahx-AEEEEYFELVAKKK (C-terminus in amide form) (SEQ ID No. 6) was used which can be purchased e.g. form the company Biosynthan GmbH (Berlin-Buch, Germany).
For the assay 50 nl of a 100-fold concentrated solution of the test compound in DMSO was pipetted into either a black low volume 384 well microtiter plate or a black 1536 well microtiter plate (both Greiner Bio-One, Frickenhausen, Germany), 2 μl of a solution of EGFR in aqueous assay buffer [50 mM Hepes pH 7.0, 10 mM MgCl2, 1 mM dithiothreitol, 0.5 mM EGTA, 0.3 mM activated sodium ortho-vanadate, 0.005% (w/v) bovine serum albumin, 0.005% (v/v) Tween-20] were added and the mixture was incubated for 15 min at 22° C. to allow pre binding of the test compounds to the enzyme before the start of the kinase reaction. […] The concentration of EGFR was adjusted depending of the activity of the enzyme lot and was chosen appropriate to have the assay in the linear range, typical concentration was 15 pg/μl. The reaction was stopped by the addition of 3 μl of a solution of HTRF detection reagents (83.3 nM streptavidine-XL665 [Cisbio Bioassays, Codolet, France] and 1.67 nM PT66-Tb-Cryptate, a terbium-cryptate labelled anti-phospho-tyrosine antibody from Cisbio Bioassays [instead of the PT66 Tb cryptate PT66 Eu Chelate from Perkin Elmer can also be used]) in an aqueous EDTA-solution (133.3 mM EDTA, 0.2% (w/v) bovine serum albumin in 50 mM HEPES pH 7.5).
The resulting mixture was incubated 1 h at 22° C. to allow the binding of the biotinylated phosphorylated peptide to the streptavidine-XL665 and the PT66-Tb-Cryptate. Subsequently, the amount of phosphorylated substrate was evaluated by measurement of the resonance energy transfer from the PT66-Tb-Cryptate to the streptavidine-XL665. Therefore, the fluorescence emissions at 620 nm and 665 nm after excitation at 337 nm were measured in a HTRF reader, e.g. a Pherastar (BMG Labtechnologies, Offenburg, Germany) or a Viewlux (Perkin-Elmer). The ratio of the emissions at 665 nm and at […] was taken as the measure for the amount of phosphorylated substrate. The data were normalised (enzyme reaction without inhibitor=0% inhibition, all other assay components but no enzyme=100% inhibition).

[2] = target: mutEGFR (D770_N771insNPG, T790); test: mutEGFR (D770_N771insNPG, T790) kinase assay; format: biochemical, human
BA/F3 (insSVD) cells = test: Ba/F3 cell survival assay (Cell Titer-Glo), EGFR-insSVD; format: cell-based; conditions: Mus musculus, BaF3, 48 h, without IL-3, with EGF
Description: 293T cells from ATCC were transfected with pBABEpuro expression constructs for WT EGFR or EGFR-insSVD, or EGFR-insSVD T790M, and pCL-Eco packaging vector using Fugene-6 transfection reagent from Promega. Plates were incubated at 37° C. for 48 h. Retrovirus was harvested by filtering the media supernatant through a 0.45 μm filter.
Ba/F3 cells purchased from DSMZ were grown in RPMI+10% FBS+10 ng/mL IL-3 and infected with filtered retroviral supernatant at a 1:2 dilution. Polybrene was added to a concentration of 8 μg/mL, plates were spun for 90 min, and incubated for 16 h at 37° C. 2 μg/mL puromycin was added to the infected cells 24 h after infection and cells were continually grown in the presence of puromycin and 10 ng/mL IL-3. Following stably expressing Ba/F3 cell lines were generated: Ba/F3-EGFR-WT, Ba/F3-EGFR-insSVD, Ba/F3-EGFR-insSVD T790M, (Ba/F3-vector-control).
For cell survival assays, Ba/F3 cells were grown to a density of 1-2 million cells per mL, spun down and resuspended in media without IL-3, and replated at a concentration of 200,000-500,000 cells per mL. The cells ectopically expressing WT EGFR, EGFR-insSVD, or EGFR-insSVD T790M were plated with 10 ng/mL Millipore Culture grade EGF. The cells ectopically expressing pBABEpuro empty vector were plated with 10 ng/mL IL-3.
2 days later, cells were plated in 50 μL in a 384 well plate at a concentration of 4000 cells per well for cells assayed in the absence of IL-3 and 2000 cells per well for cells assayed in the presence of IL-3. 100 nL of compound was added to each well using a 100 nL pin head, and plates were incubated at 37° C. for 48 h.
Cell viability was measured by adding 20 μL of Cell Titer-Glo Luminescent Cell Viability Reagent diluted 1:3 in PBS. Plates were sealed with Perkin Elmer Top-Seal, inverted several times to mix, and immediately centrifuged at 1000 rpm for 2 min. Plates were incubated in low light conditions for 8-10 min and luminescence was measured.

mutEGFR (D770_N771insNPG, T790), sequence (P00533 with tags, fused parts or gaps INS770NPG limits assumed): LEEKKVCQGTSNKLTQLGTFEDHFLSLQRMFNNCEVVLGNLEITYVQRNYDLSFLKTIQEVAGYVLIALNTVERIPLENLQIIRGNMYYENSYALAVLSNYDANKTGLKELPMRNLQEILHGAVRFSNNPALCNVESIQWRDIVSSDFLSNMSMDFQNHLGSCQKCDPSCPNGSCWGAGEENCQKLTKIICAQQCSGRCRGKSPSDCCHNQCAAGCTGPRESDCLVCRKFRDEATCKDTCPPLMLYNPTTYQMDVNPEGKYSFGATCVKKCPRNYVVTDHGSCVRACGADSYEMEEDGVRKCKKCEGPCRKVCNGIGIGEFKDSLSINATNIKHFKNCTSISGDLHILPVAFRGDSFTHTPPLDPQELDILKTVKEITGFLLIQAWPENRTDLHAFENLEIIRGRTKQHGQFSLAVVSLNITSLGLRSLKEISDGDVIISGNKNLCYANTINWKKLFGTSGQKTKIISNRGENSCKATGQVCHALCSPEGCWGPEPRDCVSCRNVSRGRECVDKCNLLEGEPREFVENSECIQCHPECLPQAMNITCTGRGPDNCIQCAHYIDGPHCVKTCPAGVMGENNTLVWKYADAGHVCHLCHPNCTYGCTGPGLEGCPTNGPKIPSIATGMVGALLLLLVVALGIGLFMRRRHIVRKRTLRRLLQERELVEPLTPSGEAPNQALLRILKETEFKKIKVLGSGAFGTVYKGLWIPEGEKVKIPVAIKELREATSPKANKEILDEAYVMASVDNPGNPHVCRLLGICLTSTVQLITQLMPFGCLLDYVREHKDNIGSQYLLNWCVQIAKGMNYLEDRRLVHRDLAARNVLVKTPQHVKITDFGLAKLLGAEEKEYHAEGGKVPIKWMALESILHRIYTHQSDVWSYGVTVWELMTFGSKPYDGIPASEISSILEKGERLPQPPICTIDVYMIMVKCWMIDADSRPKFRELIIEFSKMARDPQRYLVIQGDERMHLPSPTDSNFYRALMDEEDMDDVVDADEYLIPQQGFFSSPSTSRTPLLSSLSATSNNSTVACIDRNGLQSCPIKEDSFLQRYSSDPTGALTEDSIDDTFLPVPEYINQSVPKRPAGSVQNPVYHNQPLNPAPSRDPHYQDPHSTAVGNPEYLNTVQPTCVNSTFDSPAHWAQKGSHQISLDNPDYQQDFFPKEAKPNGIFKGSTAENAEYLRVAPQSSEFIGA
mutEGFR (D770_N771insSVD), sequence (P00533 with tags, fused parts or gaps INS767SVD limits assumed): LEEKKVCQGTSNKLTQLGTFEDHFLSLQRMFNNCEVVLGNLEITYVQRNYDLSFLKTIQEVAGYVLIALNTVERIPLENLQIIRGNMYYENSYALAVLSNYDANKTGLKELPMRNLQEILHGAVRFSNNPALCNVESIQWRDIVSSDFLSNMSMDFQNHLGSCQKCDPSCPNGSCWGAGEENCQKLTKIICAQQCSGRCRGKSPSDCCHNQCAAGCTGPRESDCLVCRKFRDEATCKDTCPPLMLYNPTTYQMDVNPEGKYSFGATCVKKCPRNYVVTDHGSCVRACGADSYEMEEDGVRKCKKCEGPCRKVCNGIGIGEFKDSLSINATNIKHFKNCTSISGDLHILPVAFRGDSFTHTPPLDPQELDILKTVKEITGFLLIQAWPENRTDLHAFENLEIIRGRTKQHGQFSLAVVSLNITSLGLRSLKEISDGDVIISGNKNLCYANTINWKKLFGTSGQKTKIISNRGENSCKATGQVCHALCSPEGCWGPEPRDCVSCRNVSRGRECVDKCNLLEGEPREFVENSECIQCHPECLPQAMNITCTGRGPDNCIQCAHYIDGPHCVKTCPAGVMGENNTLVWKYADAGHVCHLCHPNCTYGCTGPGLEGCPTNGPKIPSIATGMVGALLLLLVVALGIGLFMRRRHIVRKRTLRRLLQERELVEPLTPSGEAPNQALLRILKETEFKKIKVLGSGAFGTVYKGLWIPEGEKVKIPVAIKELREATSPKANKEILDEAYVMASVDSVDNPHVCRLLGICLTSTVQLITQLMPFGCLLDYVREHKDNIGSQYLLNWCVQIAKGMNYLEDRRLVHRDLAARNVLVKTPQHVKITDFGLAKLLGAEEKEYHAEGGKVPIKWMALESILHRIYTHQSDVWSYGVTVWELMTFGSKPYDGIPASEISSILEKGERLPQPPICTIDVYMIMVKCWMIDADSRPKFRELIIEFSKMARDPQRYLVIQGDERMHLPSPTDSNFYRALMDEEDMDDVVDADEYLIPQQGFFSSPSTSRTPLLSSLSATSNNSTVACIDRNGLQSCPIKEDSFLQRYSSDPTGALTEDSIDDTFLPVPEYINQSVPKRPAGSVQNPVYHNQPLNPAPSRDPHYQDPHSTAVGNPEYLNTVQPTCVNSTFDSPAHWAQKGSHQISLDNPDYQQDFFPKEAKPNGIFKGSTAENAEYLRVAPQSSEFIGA

What does the source list for `C=CC(=O)N(C)CCOc1cnccc1-c1[nH]c2cccnc2c1-c1cc(OC)ccc1F` [Example 56, N-[2-({4-[3-(2-fluoro-5-methoxyphenyl)-1H-pyrrolo[3,2-b]pyridin-2-yl]pyridin-3-yl}oxy)ethyl]-N-methylprop-2-enamide]?
IC50 [1]: 152 nM; IC50 [2]: 395 nM; IC50 (BA/F3 (insSVD) cells): 4180 nM

`C=CC(=O)N(C)CCOc1cnccc1-c1[nH]c2cccnc2c1-c1cc(Cl)ccc1Cl` [Example 57, N-[2-({4-[3-(2,5-dichlorophenyl)-1H-pyrrolo[3,2-b]pyridin-2-yl]pyridin-3-yl}oxy)ethyl]-N-methylprop-2-enamide] was tested. Which IC50 [1] did it give?
The IC50 was 156 nM.

And the IC50 [2]?
Its IC50 is 450 nM.

What about the IC50 (BA/F3 (insSVD) cells) of the same compound?
Its IC50 is 4590 nM.

Which IC50 [1] does the source give for `C=CC(=O)N(C)CCOc1cnccc1-c1[nH]c2cccnc2c1-c1cccc(OC(F)(F)F)c1` [Example 58, N-methyl-N-{2-[(4-{3-[3-(trifluoromethoxy)phenyl]-1H-pyrrolo[3,2-b]pyridin-2-yl}pyridin-3-yl)oxy]ethyl}prop-2-enamide] here?
The IC50 was 249 nM.

And the IC50 [2]?
The IC50 was 1160 nM.

What about the IC50 (BA/F3 (insSVD) cells) of the same compound?
The IC50 was 6280 nM.

Which results are given for `C=CS(=O)(=O)N(C)CCOc1cnccc1-c1[nH]c2cccnc2c1-c1cc(C(F)(F)F)ccc1F` [Example 59, N-{2-[(4-{3-[2-fluoro-5-(trifluoromethyl)phenyl]-1H-pyrrolo[3,2-b]pyridin-2-yl}pyridin-3-yl)oxy]ethyl}-N-methylethenesulfonamide]?
IC50 [1]: 0.499 nM; IC50 [2]: 1.6 nM; IC50 (BA/F3 (insSVD) cells): 76.4 nM

What does the source list for `C=CS(=O)(=O)N(C)CCOc1cnccc1-c1[nH]c2cccnc2c1-c1cc(Cl)ccc1F` [Example 60, N-[2-({4-[3-(5-chloro-2-fluorophenyl)-1H-pyrrolo[3,2-b]pyridin-2-yl]pyridin-3-yl}oxy)ethyl]-N-methylethenesulfonamide]?
IC50 [1]: 0.809 nM; IC50 [2]: 2.02 nM; IC50 (BA/F3 (insSVD) cells): 154 nM

What does the source list for `C=CS(=O)(=O)N(C)CCOc1cnccc1-c1[nH]c2cccnc2c1-c1cc(F)ccc1F` [Example 61, N-[2-({4-[3-(2,5-difluorophenyl)-1H-pyrrolo[3,2-b]pyridin-2-yl]pyridin-3-yl}oxy)ethyl]-N-methylethenesulfonamide]?
IC50 [1]: 0.872 nM; IC50 [2]: 2.82 nM; IC50 (BA/F3 (insSVD) cells): 120 nM

Which results are given for `C=CS(=O)(=O)N(C)CCOc1cnccc1-c1[nH]c2cccnc2c1-c1ccc2ccsc2c1` [Example 62, N-[2-({4-[3-(1-benzothiophen-6-yl)-1H-pyrrolo[3,2-b]pyridin-2-yl]pyridin-3-yl}oxy)ethyl]-N-methylethenesulfonamide]?
IC50 [1]: 1.14 nM; IC50 [2]: 3.3 nM; IC50 (BA/F3 (insSVD) cells): 326 nM

Which results are given for `C=CS(=O)(=O)N(C)CCOc1cnccc1-c1[nH]c2cccnc2c1-c1cccc(CC)c1` [Example 63, N-[2-({4-[3-(3-ethylphenyl)-1H-pyrrolo[3,2-b]pyridin-2-yl]pyridin-3-yl}oxy)ethyl]-N-methylethenesulfonamide]?
IC50 [1]: 1.44 nM; IC50 [2]: 5.88 nM; IC50 (BA/F3 (insSVD) cells): 455 nM

With `C=CS(=O)(=O)N(C)CCOc1cnccc1-c1[nH]c2cccnc2c1-c1cc(C)ccc1F` [Example 64, N-[2-({4-[3-(2-fluoro-5-methylphenyl)-1H-pyrrolo[3,2-b]pyridin-2-yl]pyridin-3-yl}oxy)ethyl]-N-methylethenesulfonamide] as the compound, how does the IC50 [1] read?
Its IC50 is 1.47 nM.

And the IC50 [2]?
The IC50 was 2.21 nM.

What about the IC50 (BA/F3 (insSVD) cells) of the same compound?
Its IC50 is 92.9 nM.

How did the IC50 [1] turn out when `C=CS(=O)(=O)N(C)CCOc1cnccc1-c1[nH]c2cccnc2c1-c1cc(C)cc(F)c1` [Example 65, N-[2-({4-[3-(3-fluoro-5-methylphenyl)-1H-pyrrolo[3,2-b]pyridin-2-yl]pyridin-3-yl}oxy)ethyl]-N-methylethenesulfonamide] was run?
The IC50 was 2.48 nM.

And the IC50 [2]?
Its IC50 is 7.22 nM.

And the IC50 (BA/F3 (insSVD) cells)?
Its IC50 is 267 nM.

For `C=CS(=O)(=O)N(C)CCOc1cnccc1-c1[nH]c2cccnc2c1-c1cccc(C(F)(F)F)c1` [Example 66, N-methyl-N-{2-[(4-{3-[3-(trifluoromethyl)phenyl]-1H-pyrrolo[3,2-b]pyridin-2-yl}pyridin-3-yl)oxy]ethyl}ethenesulfonamide], which IC50 [1] is on record?
Its IC50 is 2.61 nM.

What about the IC50 [2] of the same compound?
The IC50 was 6.66 nM.

What about the IC50 (BA/F3 (insSVD) cells) of the same compound?
Its IC50 is 421 nM.

Which IC50 [1] does the source give for `C=CS(=O)(=O)N(C)CCOc1cnccc1-c1[nH]c2cccnc2c1-c1cc(CC)ccc1F` [Example 67, N-[2-({4-[3-(5-ethyl-2-fluorophenyl)-1H-pyrrolo[3,2-b]pyridin-2-yl]pyridin-3-yl}oxy)ethyl]-N-methylethenesulfonamide] here?
The IC50 was 3.01 nM.

What about the IC50 [2] of the same compound?
Its IC50 is 14.6 nM.

And the IC50 (BA/F3 (insSVD) cells)?
Its IC50 is 418 nM.

Which results are given for `C=CS(=O)(=O)N(C)CCOc1cnccc1-c1[nH]c2cccnc2c1-c1cc(F)cc(F)c1` [Example 68, N-[2-({4-[3-(3,5-difluorophenyl)-1H-pyrrolo[3,2-b]pyridin-2-yl]pyridin-3-yl}oxy)ethyl]-N-methylethenesulfonamide]?
IC50 [1]: 3.64 nM; IC50 [2]: 8.76 nM; IC50 (BA/F3 (insSVD) cells): 296 nM

For `C=CS(=O)(=O)N(C)CCOc1cnccc1-c1[nH]c2cccnc2c1-c1cccc(OC)c1` [Example 69, N-[2-({4-[3-(3-methoxyphenyl)-1H-pyrrolo[3,2-b]pyridin-2-yl]pyridin-3-yl}oxy)ethyl]-N-methylethenesulfonamide], which IC50 [1] is on record?
The IC50 was 3.65 nM.

And the IC50 [2]?
Its IC50 is 8.7 nM.

What about the IC50 (BA/F3 (insSVD) cells) of the same compound?
The IC50 was 287 nM.

With `C=CS(=O)(=O)N(C)CCOc1cnccc1-c1[nH]c2cccnc2c1-c1cccc(C(C)C)c1` [Example 70, N-methyl-N-{2-[(4-{3-[3-(propan-2-yl)phenyl]-1H-pyrrolo[3,2-b]pyridin-2-yl}pyridin-3-yl)oxy]ethyl}ethenesulfonamide] as the compound, how does the IC50 [1] read?
Its IC50 is 5.33 nM.

What about the IC50 [2] of the same compound?
The IC50 was 46.6 nM.

What about the IC50 (BA/F3 (insSVD) cells) of the same compound?
The IC50 was 749 nM.

What does the source list for `C=CS(=O)(=O)N(C)CCOc1cnccc1-c1[nH]c2cccnc2c1-c1cc(Cl)ccc1Cl` [Example 71, N-[2-({4-[3-(2,5-dichlorophenyl)-1H-pyrrolo[3,2-b]pyridin-2-yl]pyridin-3-yl}oxy)ethyl]-N-methylethenesulfonamide]?
IC50 [1]: 5.37 nM; IC50 [2]: 8.59 nM; IC50 (BA/F3 (insSVD) cells): 404 nM

For `C=CS(=O)(=O)N(C)CCOc1cnccc1-c1[nH]c2cccnc2c1-c1ccccc1CC` [Example 72, N-[2-({4-[3-(2-ethylphenyl)-1H-pyrrolo[3,2-b]pyridin-2-yl]pyridin-3-yl}oxy)ethyl]-N-methylethenesulfonamide], which IC50 [1] is on record?
Its IC50 is 5.82 nM.

And the IC50 [2]?
Its IC50 is 78.8 nM.

And the IC50 (BA/F3 (insSVD) cells)?
Its IC50 is 463 nM.

What does the source list for `C=CS(=O)(=O)N(C)CCOc1cnccc1-c1[nH]c2cccnc2c1-c1cc(OC)ccc1F` [Example 73, N-[2-({4-[3-(2-fluoro-5-methoxyphenyl)-1H-pyrrolo[3,2-b]pyridin-2-yl]pyridin-3-yl}oxy)ethyl]-N-methylethenesulfonamide]?
IC50 [1]: 8.7 nM; IC50 [2]: 27.9 nM; IC50 (BA/F3 (insSVD) cells): 555 nM
